Columns and labels:
[1] = tested on: HLA-A*02:01 transgenic mouse; experiment: Test 7: in vivo adjuvant activity, vaccine d (Peptide SEQ ID No. 5), IFNγ ELISPOT; settings: added to vaccine d; 330 ng per body, once; FIG. 4
Protocol: Evaluation of In Vivo Adjuvant Activity in HLA-A*02:01 Transgenic Mouse
The in vivo adjuvant activity of the compound of Example 1 was evaluated in the following procedure. To a vaccine prepared by mixing Peptide SEQ ID No. 5 prepared in Reference example 5 with Montanide ISA 51 VG (hereinafter, referred to as “vaccine d”) was added the compound prepared in Example 1 to prepare a vaccine. The vaccine was administered to a HLA-A*02:01 transgenic mouse, and the adjuvant activity of the vaccine was evaluated by the method of testing antigen-specific CTL induction. The VLQELNVTV in Peptide SEQ ID No. 5 corresponds to an antigen peptide derived from an HLA-A*02:01-restricted Proteinase-3 protein.
The character for inducing CTLs specific to the antigen peptide (SEQ ID No. 5) by vaccine d was evaluated by measuring whether IFNγ can be produced upon stimulation of splenocytes from the mouse with the peptide. In addition, the character for exerting in vivo adjuvant activity by the compound in Example 1 was evaluated by comparing the number of CTLs induced by vaccine d and the number of CTLs induced by the vaccine prepared by adding the compound prepared in Example 1 to vaccine d, and checking presence or absence of the increase on the number.
Specifically, Peptide of SEQ ID No. 5 was dissolved in DMSO, and then diluted with water for injection to concentrations of 2 mg/mL. […]

[2] = tested on: HLA-A*02:01/HLA-DRB1*01:01 transgenic mouse; experiment: Test 19: in vivo adjuvant activity (CTL and helper T-cell induction), cocktail vaccine n, IFNγ ELISPOT; settings: added to cocktail vaccine n, 0.04 nmol or 0.4 nmol per body, twice
Protocol: Evaluation of In Vivo Adjuvant Activity in HLA-A*02:01/HLA-DRB1*01:01 Transgenic Mouse
The in vivo adjuvant activity of the compound of Example 1 was evaluated in the following procedure. To a cocktail vaccine comprising Peptide SEQ ID No. 1 prepared in Reference example 1 and Peptide SEQ ID No. 17 prepared in Reference example 20 with a preliminarily-emulsified composition (hereinafter, referred to as “cocktail vaccine n”) was added the compound prepared in Example 1 to prepare each vaccine. The vaccine was administered to a HLA-A*02:01/HLA-DRB1*01:01 transgenic mouse (C57BL/6CrHLA-A2.1DR1), and the adjuvant activity of each vaccine was evaluated by the method of testing antigen-specific CTL and antigen-specific helper T-cell induction. Peptide SEQ ID No. 17 is a helper peptide derived from WT1 protein.
Specifically, Peptide SEQ ID No. 1 and Peptide SEQ ID No. 17 were dissolved in DMSO, and then diluted with water for injection to concentrations of Peptide SEQ ID No. 1 of 2 mg/mL and Peptide SEQ ID No. 17 of 4 mg/mL. The prepared peptide dilution was mixed with an equal volume of the preliminary emulsified composition prepared like Test 4 to give an emulsified product, cocktail vaccine n. […] Then, after removal of the supernatant from the wells, stained spots on the ELISPOT plate were counted.

CCCCCNc1nc(N)nc(C)c1Cc1ccc(CN(C)CCOCCOCCOCCOCCO)cc1OC [Example 1, 1-(4-{[2-amino-4-methyl-6-(pentylamino)pyrimidin-5-yl]methyl}-3-methoxyphenyl)-2-methyl-5,8,11,14-tetraoxa-2-azahexadecan-16-ol·trifluoroacetate]
more: CTL counts responsive to Peptide of SEQ ID No. 5 compared with adding no compound [1] | CTL counts responsive to Peptide SEQ ID No. 1 compared with adding no compound ([2]; FIG. 23) | helper T-cell counts responsive to Peptide SEQ ID No. 17 compared with adding no compound ([2]; FIG. 24)
